For this test, the system named is HBV. The test is described as follows: Photodynamic inactivation of HBV in plasma by methylene blue solution under monochromatic light; HBV DNA in lymphocytes by PCR. The class given is cell-based, human. Conditions: for amount of HBV DNA particles in lymphocytes, computed by PCR: HBV containing plasma, 90 minutes. How it is done:
Medical instruments are placed in the cuvette 5 within the aforementioned aqueous solution of methylene blue 6, and the aforementioned door closed. The medical devices in the chamber 4 are then subjected to irradiation by emitters 7 of light energy, such as monochromatic radiation with a maximum specific content of monochromatic light with a wavelength of 590 nm or 660 nm, with a total light output of not less than 280 lm. The exposure time may be set to 90 minutes, e.g., using the aforesaid timer 9. After treatment, in the device 1, the viruses remaining on the medical instruments are completely inactivated, i.e., the viruses lose their ability to infect cells of the human body. Instruments so sterilized are then reliably reused without risk of infecting patients.
Verification steps of the employment of the claimed apparatuses and methods within an installation and carried out on in a biological environment contaminated by viruses, such as blood plasma.
Monochromatic radiation emitters 7 with a range of 590±2 nm are employed. After treatment in the inventive installation method, i.e., within device 1, samples of HBV containing plasma were treated for 90 minutes in a 0.01% solution of methylene blue, and afterward the amount of lymphocytes, computed by Polymerase Chain Reaction (PCR), of HBV DNA particles was zero, i.e., they were not found.
Monochromatic radiation emitters 7 with a range of 590±2 nm are employed. After treatment in the device 1, samples of HBV containing plasma were treated for 90 minutes in a 0.02% solution of methylene blue. As above, the amount of lymphocytes, computed by PCR, of HBV DNA particles were not found.
Monochromatic radiation emitters 7 with a range of 660±2 nm were employed. After treatment in the device 1, as set forth hereinabove, samples of HBV containing plasma were treated for 90 minutes in a 0.01% solution of methylene blue.
Monochromatic radiation emitters 7 with a range of 660±2 nm were employed.

In the case of `CN(C)c1ccc2nc3ccc(=[N+](C)C)cc-3sc2c1` [methylene blue], the HBV inactivation entry (0.01% methylene blue solution, emitter range 588-592 nm) was “full effect”; the HBV inactivation entry (0.01% methylene blue solution, emitter range 658-662 nm) is reported as “full sterilization treatment effect was reached”; the HBV inactivation result (0.02% methylene blue solution, emitter range 588-592 nm) is “full effect”; the HBV inactivation result (0.02% methylene blue solution, emitter range 658-662 nm) is “full effect”. Besides, the “amount of HBV DNA particles in lymphocytes, computed by PCR” value was “zero” (0.01% solution of methylene blue, emitters 590±2 nm); “found no HBV DNA particles” (0.01% solution of methylene blue, emitters 660±2 nm); “not found” (0.02% solution of methylene blue, emitters 590±2 nm); “no lymphocytes, computed by PCR, of the HBV DNA particles were found” (0.02% solution of methylene blue, emitters 660±2 nm).

Source of the values: patent publication US20200101182A1, “METHODS FOR INACTIVATING, ON MEDICAL INSTRUMENTS AND DEVICES, VIRUSES CONTAINING RNA AND DNA, AND APPARATUSES FOR IMPLEMENTATING SAME” (priority 2014, published 2020).
